One block for each compound: values may come before it.
Experiment: solvent given as SMILES

Structure (SMILES): CCC1(CC)c2cc(C#Cc3cc(C#Cc4ccc5c(c4)C(CC)(CC)c4cc(N(c6ccccc6)c6ccccc6)ccc4-5)c4ccc5c(C#Cc6ccc7c(c6)C(CC)(CC)c6cc(N(c8ccccc8)c8ccccc8)ccc6-7)cc(C#Cc6ccc7c(c6)C(CC)(CC)c6cc(N(c8ccccc8)c8ccccc8)ccc6-7)c6ccc3c4c65)ccc2-c2ccc(N(c3ccccc3)c3ccccc3)cc21
emission maximum (in C1CCCCC1): 524 nm | emission maximum (in C1CCOC1): 552 nm | emission maximum (in CCOC(C)=O): 545 nm | emission maximum (in CN(C)C=O): 557 nm | emission maximum (in Cc1ccccc1): 535 nm | emission maximum (in ClC(Cl)Cl): 545 nm | emission maximum (in ClCCl): 567 nm

emission maximum (in CC1CCCCC1): 480 nm | emission maximum (in CC#N): 471 nm | emission maximum (in CO): 405 nm
Structure (SMILES): COC(=O)C(NC(=O)OC(C)(C)C)c1ccc2oc(-c3ccc(OC(=O)c4ccccc4)cc3O)nc2c1 (stereo not given)

emission maximum (in ClCCl): 538 nm
Structure (SMILES): CCc1cccc(CC)c1-c1c2ccccc2c(C#Cc2ccccc2)c2cc3ccccc3cc12

emission maximum (in C1CCCCC1): 645 nm | emission maximum (in CCOC(C)=O): 680 nm
Structure (SMILES): CC1=[N+]2C(=C(c3ccc(N(c4ccccc4)c4ccccc4)cc3)c3ccc(C)n3[B-]2(F)F)C=C1c1cc2n(c1)[B-](F)(F)[N+]1=CC=CC1=C2c1c(C)cc(C)cc1C

emission maximum (in ClCCl): 623 nm
Structure (SMILES): F[B-]12Oc3ccccc3-c3c4[n+]5c(c([n+]31)-c1ccccc1O2)-c1ccccc1O[B-]5(F)Oc1ccccc1-4

emission maximum (in ClC(Cl)Cl): 634 nm
Structure (SMILES): N#CC(C#N)=Cc1ccc(-c2ccc(N(c3ccccc3)c3ccccc3)cc2)s1

emission maximum (in O): 398 nm
Structure (SMILES): Nc1ccc2ccc(O)cc2c1

emission maximum (in ClCCl): 495 nm
Structure (SMILES): CCN(CC)c1ccc2cc(-c3nc4cc(C(=O)Nc5ccccc5)ccc4o3)c(=O)oc2c1

emission maximum (in C1CCOC1): 550 nm
Structure (SMILES): CCCCCOc1cc2oc(=O)c3c4ccc(N)cc4c4ccc5cccc6c(c1)c2c3c4c56

emission maximum (in C1COCCO1): 510 nm
Structure (SMILES): COC(=O)c1ccc(/C=C2\N=C(c3ccc([N+](=O)[O-])cc3)NC2=O)cc1

emission maximum (in ClCCl): 551 nm | emission maximum (in c1ccccc1): 499 nm
Structure (SMILES): CCCCN(CCCC)c1ccc2c(c1)C#CC#Cc1cc(N(CCCC)CCCC)ccc1C#Cc1cc(c3cc1C#Cc1ccc(C(F)(F)F)cc1C#CC#Cc1cc(C(F)(F)F)ccc1C#C3)C#C2

emission maximum (in CC#N): 552 nm | emission maximum (in CCO): 552 nm | emission maximum (in CN(C)C=O): 532 nm | emission maximum (in CO): 555 nm | emission maximum (in O): 554 nm
Structure (SMILES): CCNc1cc2oc3c/c(=[NH+]\CC)c(C)cc-3c(-c3ccccc3C(=O)OCC)c2cc1C

emission maximum (in ClCCl): 440 nm
Structure (SMILES): CCOC(=O)c1c(-c2cc3c(ccc4ccccc43)oc2=O)nn(-c2cccc(C)c2)c1C(=O)OCC

emission maximum (in CS(C)=O): 649 nm
Structure (SMILES): O=C(O)CCCOc1cccc(-c2c3nc(cc4ccc([nH]4)c(-c4cccc(OCCCC(=O)O)c4)c4nc(cc5ccc2[nH]5)CC4)C=C3)c1

emission maximum (in C1CCOC1): 514 nm | emission maximum (in ClC(Cl)Cl): 577 nm | emission maximum (in ClCCl): 593 nm
Structure (SMILES): COc1cc2cc(OC)c(C#Cc3ccc([N+](=O)[O-])cc3)cc2cc1C#Cc1ccc([N+](=O)[O-])cc1

Structure (SMILES): CCCCCCCCCCCCC(CCCCCCCCCC)Cn1c2cc(/C=C/C=C(C#N)C#N)c3cccc4c5cccc6c(/C=C/C=C(C#N)C#N)cc1c(c65)c2c34 (stereo not given)
emission maximum (in C1CCCCC1): 648 nm | emission maximum (in CC#N): 702 nm | emission maximum (in Cc1ccccc1): 668 nm | emission maximum (in ClCCl): 697 nm

emission maximum (in c1cc(-c2cccc(-n3c4ccccc4c4ccccc43)c2)cc(-n2c3ccccc3c3ccccc32)c1): 610 nm
Structure (SMILES): N#Cc1nc(-c2ccc(N3c4ccccc4Oc4ccccc43)cc2)c(-c2ccc(N3c4ccccc4Oc4ccccc43)cc2)nc1C#N

emission maximum (in C1CCCCC1): 521 nm
Structure (SMILES): c1ccc(-c2cc3cccc4cc(-c5ccccc5)c5cc(-c6cc7[b-]8c(c6)c(-c6ccccc6)cc6cccc(cc7-c7ccccc7)[n+]86)cc2[b-]5[n+]34)cc1

emission maximum (in CC#N): 455 nm | emission maximum (in CCCCCC): 395 nm
Structure (SMILES): C(=C\c1ccc(N(c2ccccc2)c2ccccc2)cc1)/c1ccccc1

emission maximum (in ClCCl): 365 nm
Structure (SMILES): Cc1cc2c3ccccc3sc2c2[nH]c3ccccc3c12

emission maximum (in ClC(Cl)Cl): 536 nm
Structure (SMILES): Cc1cc(=O)oc2cc3c(cc12)c1c2ccccc2c2ccccc2c1c1c2ccccc2c2ccccc2c31

emission maximum (in ClCCl): 576 nm
Structure (SMILES): COc1ccc(C#Cc2c3ccccc3c(C#Cc3ccc(OC)cc3)c3cc4ccccc4cc23)cc1

emission maximum (in CC(C)(C)O): 441 nm | emission maximum (in CC(C)CO): 451 nm | emission maximum (in CC(C)O): 453 nm | emission maximum (in CCCCO): 457 nm | emission maximum (in CCCO): 458 nm | emission maximum (in CCO): 462 nm | emission maximum (in CN(C)C=O): 425 nm | emission maximum (in CNC=O): 459 nm | emission maximum (in CO): 467 nm | emission maximum (in NC=O): 464 nm | emission maximum (in O): 483 nm
Structure (SMILES): COCCOc1ccc(OCCOC)c(C=O)c1

emission maximum (in C1CCCCC1): 373 nm
Structure (SMILES): CCn1c2ccccc2c2ccc(C#N)cc21

emission maximum (in C1CCOC1): 417 nm
Structure (SMILES): c1ccc2c(c1)-c1ccccc1C21c2ccccc2-c2c1c1c3ccccc3ccc1c1ccccc21

emission maximum (in ClCCl): 666 nm
Structure (SMILES): CCCCCCCCOc1ccc(C#Cc2c3cc4ccccc4cc3c(C#C[Si](C(C)C)(C(C)C)C(C)C)c3cc4ccccc4cc23)cc1

emission maximum (in ClCCl): 448 nm
Structure (SMILES): CCCCn1c(-c2ccc(-c3nnc(-c4cccs4)o3)cc2)nc2c3ccccc3c3ccccc3c21

emission maximum (in C1CCCCC1): 434.97 nm | emission maximum (in C1COCCO1): 443.26 nm | emission maximum (in CC#N): 449.03 nm | emission maximum (in CC(C)O): 448.03 nm | emission maximum (in CCCCCC): 434.22 nm | emission maximum (in ClC(Cl)Cl): 446.43 nm | emission maximum (in c1ccccc1): 441.7 nm
Structure (SMILES): CC1(C)CCc2c(c3ccccc3c3nc4c(nc23)c2c(c3ccccc34)OC(C)(C)CC2)O1

emission maximum (in ClCCl): 548 nm
Structure (SMILES): [O-][n+]1c(-c2ccc(Br)cc2)cc(N2CCOCC2)nc1/C=C/c1ccccc1

emission maximum (in ClC(Cl)Cl): 472 nm
Structure (SMILES): C(#Cc1ccncc1)C(C#Cc1ccncc1)=Cc1ccc(C=C(C#Cc2ccncc2)C#Cc2ccncc2)cc1

emission maximum (in C1CCOC1): 513 nm
Structure (SMILES): COc1ccc(-c2cc3c(s2)-c2sc(-c4ccc(OC)cc4)cc2P(c2ccccc2)(c2ccccc2)=[O+][B-]3(c2c(C)cc(C)cc2C)c2c(C)cc(C)cc2C)cc1

emission maximum (in ClCCl): 483 nm
Structure (SMILES): COc1ccc(N(c2ccc(OC)cc2)c2ccc3c(c2)C2(c4cc(N(c5ccc(OC)cc5)c5ccc(OC)cc5)ccc4C=C3)c3ccccc3-c3ccccc32)cc1

emission maximum (in ClCCl): 408 nm
Structure (SMILES): c1ccc2c(c1)-c1ccccc1[Si]21c2ccccc2-c2cc3c(cc21)-c1ccccc1[Si]31c2ccccc2-c2ccccc21

emission maximum (in c1ccccc1): 408 nm
Structure (SMILES): CCOC(=O)CSc1nc2c(c(C#N)c1C#N)CCCCCC2

Structure (SMILES): O=C(O)C1=C/C(=C/C=[NH+]/c2ccc3c(C(F)(F)F)cc(=O)oc3c2)CC(C(=O)O)N1 (stereo not given)
emission maximum (in O): 570 nm

emission maximum (in CC(C)O): 562 nm | emission maximum (in CCO): 564 nm | emission maximum (in CO): 563.8 nm | emission maximum (in O): 588.3 nm
Structure (SMILES): Cc1cc2nc3cc(C)c(N)cc3[n+](-c3ccccc3)c2cc1N

emission maximum (in CCO): 500 nm
Structure (SMILES): CN1c2cc3nc4cc(Br)c(Br)cc4nc3cc2N(C)C1(C)C

emission maximum (in ClCCl): 521 nm
Structure (SMILES): CCCCCCN1C(=O)c2cccc3c(-c4ccc(-c5cc(-c6ccc(C)cc6)n(-c6ccccc6)n5)s4)ccc(c23)C1=O

Structure (SMILES): COc1cc(/C=C/c2cc(OC)c(-c3nc(-c4ccccc4)c(-c4ccccc4)[nH]3)cc2OC)c(OC)cc1/C=C/c1cc(OC)c(-c2nc(-c3ccccc3)c(-c3ccccc3)[nH]2)cc1OC
emission maximum (in C1CCOC1): 510 nm | emission maximum (in CC#N): 515 nm | emission maximum (in CN(C)C=O): 512 nm | emission maximum (in Cc1ccccc1): 502 nm

Structure (SMILES): c1ccc(C2(c3ccccc3)c3ccccc3N(c3ccc(-c4nc([C@]56CC7CC(C[C@@H](C7)C5)C6)nc([C@]56C[C@H]7C[C@@H](C[C@H](C7)C5)C6)n4)cc3)c3ccccc32)cc1
emission maximum (in CC(C)(C)c1ccc(-n2c3ccc([Si](c4ccccc4)(c4ccccc4)c4ccccc4)cc3c3cc([Si](c4ccccc4)(c4ccccc4)c4ccccc4)ccc32)cc1): 445.29 nm | emission maximum (in Cc1ccccc1): 451.05 nm

emission maximum (in ClC(Cl)Cl): 645 nm
Structure (SMILES): Cc1cc(C)c(C2=C3C=CC4=[N+]3[B-]3(Oc5ccccc54)Oc4ccccc4-c4ccc2n43)c(C)c1 (stereo not given)

emission maximum (in ClC(Cl)Cl): 484 nm
Structure (SMILES): CCCCCCN1C(=O)c2cccc3c(-c4scc5c4OCCO5)ccc(c23)C1=O

emission maximum (in CC#N): 556 nm
Structure (SMILES): CN(C)c1ccc(-n2c(-c3ccncc3)nc3ccccc32)cc1

emission maximum (in C1CCOC1): 492 nm
Structure (SMILES): c1cc2ccc1-c1ccc(cc1)-c1ccc([se]1)-c1ccc(cc1)-c1ccc(cc1)-c1ccc([se]1)-c1ccc(cc1)-c1ccc(cc1)-c1ccc([se]1)-c1ccc(cc1)-c1ccc(cc1)-c1ccc-2[se]1

emission maximum (in CO): 620 nm
Structure (SMILES): COc1ccc(/C=C/c2ccc(/C=C/c3cc[n+]4ccc(/C=C/c5ccc(/C=C/c6ccc(OC)cc6)cc5)cc4c3)cc2)cc1

emission maximum (in CC1CCCCC1): 364 nm | emission maximum (in CC#N): 390 nm | emission maximum (in CO): 405 nm
Structure (SMILES): COC(=O)C(NC(=O)OC(C)(C)C)c1ccc2oc(-c3cc(OC)ccc3OC)nc2c1 (stereo not given)

emission maximum (in ClCCl): 392 nm
Structure (SMILES): C(#Cc1ccc2c(c1)c1cc(C#Cc3ccccc3)ccc1n2-c1cc2ccccc2c2ccccc12)c1ccccc1

emission maximum (in ClC(Cl)Cl): 714 nm
Structure (SMILES): Cc1ccc(C2=C3C=CC4=[N+]3[P-](=O)(=O)n3c2ccc3-c2ccc([nH]2)/C(c2ccc(C)cc2)=c2/cc/c(o2)=C(\c2ccc(C)cc2)c2ccc4[nH]2)cc1

Structure (SMILES): N#C[Se]CCCCCOc1ccc2ccc(=O)oc2c1
emission maximum (in C1CCCCC1): 378 nm | emission maximum (in C1CCOC1): 391 nm | emission maximum (in C1COCCO1): 386 nm | emission maximum (in CC#N): 387 nm | emission maximum (in CCCCCCC): 391 nm | emission maximum (in CCO): 386 nm | emission maximum (in CN(C)C=O): 396 nm | emission maximum (in CO): 391 nm | emission maximum (in O): 397 nm | emission maximum (in OCCO): 392 nm

emission maximum (in ClCCl): 609 nm
Structure (SMILES): COc1ccc(C2=C(c3ccc(OC)cc3)c3cccc4c5c(cc(c34)O2)=NC2C=C(Br)C(Br)=CC2N=5)cc1 (stereo not given)

Structure (SMILES): CN(C)c1ccc2cc3c(cc2c1)OCCN=C3
emission maximum (in C1CCOC1): 425 nm | emission maximum (in CC#N): 562 nm | emission maximum (in CC(C)O): 447 nm | emission maximum (in CCOC(C)=O): 426 nm | emission maximum (in CN(C)C=O): 442 nm | emission maximum (in CS(C)=O): 447 nm | emission maximum (in Cc1ccccc1): 415 nm | emission maximum (in ClCCl): 532 nm | emission maximum (in O): 559 nm

emission maximum (in ClCCl): 450 nm
Structure (SMILES): CC(C)(C)c1ccc(-c2cc(-c3ccc(-c4cc(-c5ccc(C(C)(C)C)cc5)c(C(=O)NCc5cccs5)s4)s3)sc2C(=O)NCc2cccs2)cc1

emission maximum (in ClC(Cl)Cl): 722 nm
Structure (SMILES): Cc1ccc(/C2=c3\cc/c(o3)=C(\c3ccc(C)cc3)c3ccc([nH]3)-c3ccc4n3[B-](F)(F)[N+]3=C(C=CC3=C4c3cccs3)c3ccc2[nH]3)cc1

Source: the Deep4Chem optical property database
